Data reported in ChEMBL document CHEMBL1201862, “PubChem BioAssay data set” (2004).
Calls of active or inactive are those of the source. Rule as the data show it: actives have a measured IC50 and inactives only a lower limit.

Target: Envelope glycoprotein gp160 (Human immunodeficiency virus 1, UniProt Q6QLK5)
Assay: inhibitors of HIV fusion peptide binding, primary screen, biochemical, uHTS, fluorescence dequenching (AID 1986)

Sequence of Envelope glycoprotein gp160 (Q6QLK5 whole entry, the tested form may be a part): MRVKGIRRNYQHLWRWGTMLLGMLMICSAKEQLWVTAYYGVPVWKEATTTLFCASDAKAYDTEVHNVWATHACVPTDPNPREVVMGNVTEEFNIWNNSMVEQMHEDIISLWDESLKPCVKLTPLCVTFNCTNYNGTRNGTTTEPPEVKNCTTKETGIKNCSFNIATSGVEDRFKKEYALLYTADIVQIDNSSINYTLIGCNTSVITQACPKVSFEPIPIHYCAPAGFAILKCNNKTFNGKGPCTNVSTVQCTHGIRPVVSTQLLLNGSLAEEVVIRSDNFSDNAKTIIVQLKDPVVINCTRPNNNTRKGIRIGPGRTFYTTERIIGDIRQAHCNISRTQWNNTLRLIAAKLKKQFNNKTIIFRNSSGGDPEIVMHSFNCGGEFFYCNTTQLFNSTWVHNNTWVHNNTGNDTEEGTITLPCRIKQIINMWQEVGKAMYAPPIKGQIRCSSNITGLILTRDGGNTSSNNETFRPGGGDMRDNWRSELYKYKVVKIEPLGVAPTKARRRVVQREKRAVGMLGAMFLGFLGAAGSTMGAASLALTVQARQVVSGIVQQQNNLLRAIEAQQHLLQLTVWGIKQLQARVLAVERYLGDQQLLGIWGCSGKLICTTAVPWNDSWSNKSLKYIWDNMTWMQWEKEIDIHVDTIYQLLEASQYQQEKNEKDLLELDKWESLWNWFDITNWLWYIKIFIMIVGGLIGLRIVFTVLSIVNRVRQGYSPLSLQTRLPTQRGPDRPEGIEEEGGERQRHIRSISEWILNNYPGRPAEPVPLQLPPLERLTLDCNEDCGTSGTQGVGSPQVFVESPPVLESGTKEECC

Row | Structure (SMILES) | IC50
1 | COc1ccc(-c2nn(-c3ccccc3)cc2/C=C\C(=O)Nc2ccc(C(=O)O)cc2)cc1 | 18.3 µM (active)
2 | CC1=C(C(=O)Nc2ccccc2)C(c2ccc(Cl)cc2)n2c(s/c(=C/c3cccc(OCC(=O)O)c3)c2=O)=N1 (configuration not stated) | 16.8 µM (active)
